Literature values, collected in patent publication US12208104B2, “Pharmaceutical compositions suitable for articular delivery and use thereof in treatment of joint pain” (TAIWAN LIPOSOME CO., LTD., priority 2018, dated 2025).

Test system: cartilage
Settings: repeated intra-articular injections

For `C[C@@H]1C[C@H]2[C@@H]3CCC4=CC(=O)C=C[C@]4(C)[C@@]3(F)[C@@H](O)C[C@]2(C)[C@@]1(O)C(=O)CO` [dexamethasone], the cartilage damage is listed as “cartilage damage has been reported”.
In the case of `C[C@]12C=CC(=O)C=C1CC[C@H]1[C@@H]3C[C@@H](O)[C@](O)(C(=O)CO)[C@@]3(C)C[C@H](O)[C@@]12F` [triamcinolone], the cartilage damage is given as “cartilage damage has been reported”.
